From ChEMBL document CHEMBL1201862, “PubChem BioAssay data set” (2004)
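Interpolation was linear, between the two tested concentrations surrounding the appropriate level; five concentrations were tested over 48 hours in 96-well plates. GI50 = concentration required for 50% inhibition of growth.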 Active and inactive are the calls of the source. Cut-off read from the data, not from the text of the source: active = GI50 up to about 1.1 µM and inactive = higher.

How the values were obtained:
Assay in all cases: DTP human tumour cell line panel, 48 h
COLO 205 = test system: COLO 205
NCI-H460 = test system: NCI-H460
786-0 = test system: 786-0
K562 = test system: K562
UACC-62 = test system: UACC-62
PC-3 = test system: PC-3
EKVX = test system: EKVX
SK-MEL-5 = test system: SK-MEL-5
LOX IMVI = test system: LOX IMVI
U-251 = test system: U-251
KM12 = test system: KM12
M14 = test system: M14
DU-145 = test system: DU-145
SF-539 = test system: SF-539
NCI-H23 = test system: NCI-H23
A549 = test system: A549
HOP-92 = test system: HOP-92
UACC-257 = test system: UACC-257
OVCAR-8 = test system: OVCAR-8

c1cncc(CNCc2cccnc2)c1
GI50 (COLO 205): > 100 µM (inactive)
GI50 (NCI-H460): > 100 µM (inactive)
GI50 (786-0): > 100 µM (inactive)
GI50 (K562): > 100 µM (inactive)
GI50 (UACC-62): > 100 µM (inactive)
GI50 (PC-3): > 100 µM (inactive)
GI50 (EKVX): > 100 µM (inactive)
GI50 (SK-MEL-5): > 100 µM (inactive)
GI50 (LOX IMVI): > 100 µM (inactive)
GI50 (U-251): > 100 µM (inactive)
GI50 (KM12): > 100 µM (inactive)
GI50 (M14): > 100 µM (inactive)
GI50 (DU-145): > 100 µM (inactive)
GI50 (SF-539): > 100 µM (inactive)
GI50 (NCI-H23): > 100 µM (inactive)
GI50 (A549): > 100 µM (inactive)
GI50 (HOP-92): > 100 µM (inactive)
GI50 (UACC-257): > 100 µM (inactive)
GI50 (OVCAR-8): > 100 µM (inactive)

Cc1ccc(S(=O)(=O)N/N=C2\CC3C4C=CC3C2C4)cc1 (centres undefined)
GI50 (COLO 205): > 100 µM (inactive)
GI50 (NCI-H460): > 100 µM (inactive)
GI50 (786-0): > 100 µM (inactive)
GI50 (K562): > 100 µM (inactive)
GI50 (UACC-62): > 100 µM (inactive)
GI50 (PC-3): > 100 µM (inactive)
GI50 (EKVX): > 100 µM (inactive)
GI50 (SK-MEL-5): > 100 µM (inactive)
GI50 (LOX IMVI): > 100 µM (inactive)
GI50 (U-251): > 100 µM (inactive)
GI50 (KM12): > 100 µM (inactive)
GI50 (M14): > 100 µM (inactive)
GI50 (DU-145): > 100 µM (inactive)
GI50 (SF-539): > 100 µM (inactive)
GI50 (NCI-H23): > 100 µM (inactive)
GI50 (A549): > 100 µM (inactive)
GI50 (HOP-92): > 100 µM (inactive)
GI50 (UACC-257): > 100 µM (inactive)
GI50 (OVCAR-8): > 100 µM (inactive)

CC1=CC(C)(C)Nc2ccc(CSc3ccccc3)cc21
GI50 (COLO 205): 22 µM (inactive)
GI50 (NCI-H460): 24.9 µM (inactive)
GI50 (786-0): 23.2 µM (inactive)
GI50 (K562): 18 µM (inactive)
GI50 (UACC-62): 41.1 µM (inactive)
GI50 (PC-3): 28.9 µM (inactive)
GI50 (EKVX): 22.1 µM (inactive)
GI50 (SK-MEL-5): 17.1 µM (inactive)
GI50 (LOX IMVI): 30.7 µM (inactive)
GI50 (U-251): 31.8 µM (inactive)
GI50 (KM12): 26.2 µM (inactive)
GI50 (M14): 26.6 µM (inactive)
GI50 (DU-145): 22.8 µM (inactive)
GI50 (SF-539): 44.8 µM (inactive)
GI50 (NCI-H23): 32.6 µM (inactive)
GI50 (A549): 21.1 µM (inactive)
GI50 (HOP-92): 34.8 µM (inactive)
GI50 (UACC-257): 26.7 µM (inactive)
GI50 (OVCAR-8): 46.2 µM (inactive)

CCCCCCCC(=O)OC[n+]1ccc(-c2c(COC(=O)NC(C)C)c(COC(=O)NC(C)C)c3n2CCC3)cc1
GI50 (COLO 205): 48.9 µM (inactive)
GI50 (NCI-H460): 21.4 µM (inactive)
GI50 (786-0): 27 µM (inactive)
GI50 (K562): 34.4 µM (inactive)
GI50 (UACC-62): 13.8 µM (inactive)
GI50 (PC-3): > 65.2 µM (inactive)
GI50 (EKVX): > 79.6 µM (inactive)
GI50 (SK-MEL-5): 34.8 µM (inactive)
GI50 (LOX IMVI): 20.1 µM (inactive)
GI50 (U-251): 51.5 µM (inactive)
GI50 (KM12): > 100 µM (inactive)
GI50 (M14): 49.8 µM (inactive)
GI50 (DU-145): 23.4 µM (inactive)
GI50 (SF-539): 23.1 µM (inactive)
GI50 (NCI-H23): 35.2 µM (inactive)
GI50 (A549): 63.8 µM (inactive)
GI50 (HOP-92): 26.4 µM (inactive)
GI50 (UACC-257): 70.6 µM (inactive)
GI50 (OVCAR-8): 43.1 µM (inactive)

Cc1cccc2c(N)c3cccc(C(=O)NCCNCCN)c3nc12
GI50 (COLO 205): 2.71 µM (inactive)
GI50 (NCI-H460): 0.558 µM (active)
GI50 (786-0): 0.0644 µM (active)
GI50 (K562): 8.28 µM (inactive)
GI50 (UACC-62): 7.4 µM (inactive)
GI50 (PC-3): 10.8 µM (inactive)
GI50 (EKVX): 10.4 µM (inactive)
GI50 (SK-MEL-5): 5.11 µM (inactive)
GI50 (LOX IMVI): 5.28 µM (inactive)
GI50 (U-251): 0.736 µM (active)
GI50 (KM12): 3.89 µM (inactive)
GI50 (M14): 28.7 µM (inactive)
GI50 (DU-145): 2.62 µM (inactive)
GI50 (SF-539): 1.61 µM (inactive)
GI50 (NCI-H23): 0.598 µM (active)
GI50 (A549): 0.203 µM (active)
GI50 (HOP-92): 7.6 µM (inactive)
GI50 (UACC-257): 26.2 µM (inactive)
GI50 (OVCAR-8): 0.995 µM (active)

O=C1Sc2cc3ccccc3cc2C(=O)Sc2ccc(Br)cc21
GI50 (COLO 205): 12.8 µM (inactive)
GI50 (NCI-H460): 7.26 µM (inactive)
GI50 (786-0): 2.07 µM (inactive)
GI50 (K562): 4.17 µM (inactive)
GI50 (UACC-62): 4.93 µM (inactive)
GI50 (PC-3): 3.43 µM (inactive)
GI50 (EKVX): 14.3 µM (inactive)
GI50 (SK-MEL-5): 8.3 µM (inactive)
GI50 (LOX IMVI): 1.76 µM (inactive)
GI50 (U-251): 2.06 µM (inactive)
GI50 (KM12): 7.16 µM (inactive)
GI50 (M14): 3.54 µM (inactive)
GI50 (DU-145): 4.84 µM (inactive)
GI50 (SF-539): 7.93 µM (inactive)
GI50 (NCI-H23): 8.47 µM (inactive)
GI50 (A549): 8.89 µM (inactive)
GI50 (HOP-92): 7.29 µM (inactive)
GI50 (UACC-257): 5.81 µM (inactive)
GI50 (OVCAR-8): 2.51 µM (inactive)
